For data set [1], the target named is T1, adenosine deaminase obtained from calf intestine (Bos taurus, UniProt P56658).
T1 construct: purchased
T1 sequence (P56658 1-363): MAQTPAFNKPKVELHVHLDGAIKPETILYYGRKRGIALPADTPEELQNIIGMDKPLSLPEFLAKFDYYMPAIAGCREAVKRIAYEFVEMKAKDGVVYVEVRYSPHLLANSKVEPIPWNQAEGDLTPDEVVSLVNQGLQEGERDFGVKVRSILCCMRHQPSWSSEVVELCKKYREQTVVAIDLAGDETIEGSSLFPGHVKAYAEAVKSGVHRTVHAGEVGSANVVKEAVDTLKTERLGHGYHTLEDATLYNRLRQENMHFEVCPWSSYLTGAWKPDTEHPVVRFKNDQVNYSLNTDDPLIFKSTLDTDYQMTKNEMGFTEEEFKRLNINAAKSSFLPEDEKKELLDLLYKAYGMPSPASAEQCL
As to the kind of experiment: Inhibition of the action of adenosine deaminase in vitro (decrease in absorbance at 265 nm). It counts as biochemical. As to conditions: pH 7.4, 30° C. As to the method: This test was performed with adenosine deaminase obtained from calf intestine.
(§1) The experimental procedure described hereunder was used:
In the absorption cell the following solutions were introduced:
2.7 ml of a 0.1 molar phosphate buffer solution (pH=7.4)
0.3 ml of a 10^-4 or 5.10^-4 molar solution of adenosine in the phosphate buffer solution (final concentration in adenosine: 10^-5 or 5.10^-5 mol) 0.01 ml of a 3.10^-3 molar ethanolic solution of the compound to be studied (about 10 milliunits)
The contents of the absorption cell were allowed to incubate for 2 minutes and then the enzymatic reaction was started by adding 0.03 ml of a commercial adenosine deaminase solution having a known concentration in enzyme. The reaction was performed at 30° C. and followed by spectrophotometric recording of the decrease in absorbance at 265 nm due to the transformation of adenosine into inosine by means of adenosine deaminase. This enzymatic reaction can be represented by the following equation: [formula]
The same measurements were performed with a control solution containing all the ingredients referred to above except the compound being studied. Curves were then plotted representing the decrease in absorbance in comparison with time obtained on the one hand with the solution containing the inhibitor and on the other with the control solution.
The slope of both curves was measured and expressed in the number of mols of inosine formed in one minute. After that, the percent of inhibition of the activity of adenosine deaminase provoked by a compound of the invention was calculated.

Data set [2] concerns the target T2, xanthine oxidase found in milk (Bos taurus, UniProt P80457).
T2 construct: purchased
The data set can be described thus: Inhibition of the action of xanthine oxidase in vitro (U.V. spectrophotometry, formation of uric acid from hypoxanthine). It counts as biochemical. The note with it: compound at 10^-5 M; hypoxanthine substrate, pH 7.4, 37° C. As to the method:
This trial was performed with xanthine oxidase found in milk. The activity of the enzymatic preparation was measured by following the formation of uric acid starting from hypoxanthine in the presence of oxygen and of a phosphate buffer solution.
as §1
In the absorption cell, the following solutions were introduced:
1.5 ml of a 0.1 molar phosphate buffer solution (pH=7.4) saturated with oxygen.
0.3 ml of a 1 m molar solution of ethylene diamine tetraacetate.
0.01 ml of a commercial xanthine oxidase solution having a known concentration in enzyme.
0.01 ml of a 3.10^-3 molar ethanolic solution of the compound to be tested.
The contents of the absorption cell were allowed to incubate for 2 minutes and then the enzymatic reaction was started by adding 0.3 ml of a 10^-3 molar solution of hypoxanthine to the absorption cell. The reaction was followed by spectrophotometric recording of the oxidation rate of hypoxanthine at 293 nm and at 37° C. The optical density was automatically registered. The same measurements were performed with a control solution containing all the ingredients referred to above except the compound being tested.
In this way, a curve representing the variation in optical density in comparison with time was obtained with the solution containing the inhibitor on the one hand and devoid of inhibitor on the other. The slope of both curves was measured and expressed in the number of mols of uric acid formed in one minute. Thus, it was possible to compare the values obtained and calculate, in percent, the inhibition of the activity of xanthine oxidase provoked by a compound of the invention.

Data set [3] can be described thus: Uricosuric action in humans after a single oral dose. It counts as in vivo. The note with it: single oral dose 300 mg. As to the method: The uricosuric action was determined in humans after a single dose of 300 mg of 2-ethyl-3-(3,5-dibromo-4-hydroxy-benzoyl)-indolizine by oral route.
The test system of the next data set is HSV-1 (KOS). The data set can be described thus: Herpetic skin lesions and mortality of nu/nu mice inoculated with HSV-1 (KOS), topical Ara-A and/or compound. It counts as in vivo. As to conditions: topical 1% in dimethylsulfoxide, 4 times daily days 0-4. As to the method: This test was carried out in order to determine the effects of adenine arabinoside (Ara-A) and compounds of the invention on the incidence of herpetic skin lesions and mortality of nu/nu mice inoculated with HSV-1 (KOS). Athymic nude (nu/nu) mice, 20 to 25 days old, were inoculated intracutaneously with HSV-1 (KOS) at about 10^4.5 PFU (plaque-forming units) per mouse. Ara-A and/or a compound of the invention were applied topically at 1% in dimethylsulfoxide, 4 times daily on days 0, 1, 2, 3 and 4. The number of mice with epidermal lesion (necrosis of at least 5 to 10 mm long) per total number of mice alive was registered.

Data set [4] concerns the target T1, adenosine deaminase obtained from calf intestine. As to the kind of experiment: Inhibition of the action of adenosine deaminase in vitro (decrease in absorbance at 265 nm). The note with it: compound at a concentration of 10^-6 M. It counts as biochemical.
Data set [5] in a line: Acute toxicity tests in mice. It counts as in vivo. As to conditions: 20 mg/kg by intravenous route. As to the method:
Acute toxicity tests were performed in mice with compounds of the invention.

In data set [6] the target is T3, adenosine deaminase in ascites cells (Krebs II) (Mus musculus, UniProt P03958).
T3 construct: tested in intact cells by incubating ascites cells (Krebs II); endogenous in cells; host or cells: Krebs II ascites cells
T3 sequence (P03958 1-352): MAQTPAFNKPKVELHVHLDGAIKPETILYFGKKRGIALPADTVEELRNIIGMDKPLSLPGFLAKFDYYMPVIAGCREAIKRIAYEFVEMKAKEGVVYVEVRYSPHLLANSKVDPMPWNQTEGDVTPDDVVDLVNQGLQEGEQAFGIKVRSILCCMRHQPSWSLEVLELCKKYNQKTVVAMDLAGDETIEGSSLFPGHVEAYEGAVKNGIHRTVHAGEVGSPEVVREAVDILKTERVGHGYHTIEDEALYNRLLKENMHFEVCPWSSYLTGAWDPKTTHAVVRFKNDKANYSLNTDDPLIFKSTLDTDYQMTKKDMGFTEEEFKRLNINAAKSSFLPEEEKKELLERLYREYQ
The data set can be described thus: Inhibition of adenosine deamination in intact ascites cells (14C adenosine). It counts as cell-based. As to conditions: 14C adenosine 5.10^-5 M, read-out: concentration at which deamination of adenosine by ascites cells was 50% inhibited (converted). As to the method: The inhibition of the action of adenosine deaminase by these two above-cited compounds has also been tested in intact cells by incubating ascites cells (Krebs II) in the presence of ^14 C adenosine at a concentration of 5.10^-5 M and by measuring the formation of inosine and hypoxanthine ^14 C. The deamination of adenosine due to the ascites cells was 50% inhibited in the presence of 2.10^-6 M of 1-bromo-2-phenyl-3-(3-bromo-4-hydroxy-benzoyl)-indolizine and of 10^-6 M of 1-bromo-2-(4-fluoro-phenyl)-3-(3-bromo-4-hydroxy-benzoyl)-indolizine.

Data set [7] addresses T2, xanthine oxidase found in milk. As to the kind of experiment: Inhibition of the action of xanthine oxidase in vitro (U.V. spectrophotometry, formation of uric acid from hypoxanthine). It counts as biochemical. The note with it: compound at a concentration of 10^-6 M.

T2 sequence (P80457 whole entry): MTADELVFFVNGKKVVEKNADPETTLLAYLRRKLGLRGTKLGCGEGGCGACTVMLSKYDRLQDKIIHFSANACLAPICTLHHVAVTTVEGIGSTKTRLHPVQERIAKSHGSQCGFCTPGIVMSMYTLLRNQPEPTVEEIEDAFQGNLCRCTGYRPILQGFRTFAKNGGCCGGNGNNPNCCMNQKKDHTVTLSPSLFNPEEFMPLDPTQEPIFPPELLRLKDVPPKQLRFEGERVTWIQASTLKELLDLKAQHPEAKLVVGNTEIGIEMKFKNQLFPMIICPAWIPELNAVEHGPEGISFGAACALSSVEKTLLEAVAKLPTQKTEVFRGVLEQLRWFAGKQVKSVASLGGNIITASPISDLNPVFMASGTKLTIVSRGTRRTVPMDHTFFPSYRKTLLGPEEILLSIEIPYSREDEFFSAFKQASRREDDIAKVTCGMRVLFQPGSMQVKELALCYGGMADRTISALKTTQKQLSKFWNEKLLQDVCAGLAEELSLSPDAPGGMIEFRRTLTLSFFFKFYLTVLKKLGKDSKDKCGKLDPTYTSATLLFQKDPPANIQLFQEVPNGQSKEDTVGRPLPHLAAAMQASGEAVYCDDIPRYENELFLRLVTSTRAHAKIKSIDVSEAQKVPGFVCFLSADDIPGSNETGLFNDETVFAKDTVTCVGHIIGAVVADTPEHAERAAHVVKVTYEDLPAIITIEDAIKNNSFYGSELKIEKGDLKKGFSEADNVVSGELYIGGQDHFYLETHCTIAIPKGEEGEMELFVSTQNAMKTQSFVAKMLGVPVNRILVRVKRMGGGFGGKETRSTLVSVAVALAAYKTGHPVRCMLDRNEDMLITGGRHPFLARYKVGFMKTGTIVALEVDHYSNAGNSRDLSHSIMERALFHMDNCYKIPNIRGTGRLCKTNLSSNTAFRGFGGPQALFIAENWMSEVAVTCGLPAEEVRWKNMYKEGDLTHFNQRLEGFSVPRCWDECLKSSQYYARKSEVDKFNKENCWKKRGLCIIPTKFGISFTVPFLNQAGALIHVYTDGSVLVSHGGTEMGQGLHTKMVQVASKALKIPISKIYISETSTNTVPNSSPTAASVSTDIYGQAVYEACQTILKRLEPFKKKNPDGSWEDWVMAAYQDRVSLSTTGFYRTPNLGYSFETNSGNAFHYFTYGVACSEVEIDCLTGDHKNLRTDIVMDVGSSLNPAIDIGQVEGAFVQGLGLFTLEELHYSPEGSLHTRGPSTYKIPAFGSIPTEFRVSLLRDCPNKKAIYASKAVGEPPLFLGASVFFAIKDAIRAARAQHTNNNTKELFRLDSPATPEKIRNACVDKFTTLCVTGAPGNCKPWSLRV

For the compound `O=C(c1cc(Br)c(O)c(Br)c1)c1c(-c2ccccc2)c(Br)c2ccccn12` [Phenyl Br Br Br, 1-Bromo-2-phenyl-3-(3,5-dibromo-4-hydroxy-benzoyl)-indolizine], in data set [1], the “Inhibition of the action of adenosine deaminase in vitro (in %) At 5.10^-5 M adenosine” value (“Inhibition … (in %) At 5.10^-5 M adenosine” for short) stood at 22% and the “Inhibition of the action of adenosine deaminase in vitro (in %) At 10^-5 M adenosine” value (from here on “Inhibition … (in %) At 10^-5 M adenosine”) was 53%. In addition, the inhibition at 10 µM in data set [2] was determined as 48%.

Take `CC(C)c1cc2ccccn2c1C(=O)c1cc(Cl)c(O)c(Cl)c1` [Isopropyl H Cl Cl, 2-Isopropyl-3-(3,5-dichloro-4-hydroxy-benzoyl)-indolizine]: the “Inhibition … (in %) At 5.10^-5 M adenosine” value in data set [1] came to 76%. Besides, the inhibition at 10 µM in data set [2] is 96%.

For the compound `CCc1cc2ccccn2c1C(=O)c1cc(Br)c(O)c(Br)c1` [Ethyl H Br Br, 2-Ethyl-3-(3,5-dibromo-4-hydroxy-benzoyl)-indolizine], 10 µM produced 98% inhibition in data set [2]. The Tmax in data set [3] (human, plasma, read-out: time of highest plasmatic level) worked out at 5 h. For the same compound, in data set [3] (24 hours), the “mean increase of urinary excretion of uric acid in 24 hours” value amounted to 22%. This compound returned a lowering of uricemia in data set [3] (by the 5th hour) of 9%. In addition, the “increase of urinary excretion of uric acid” value in data set [3] (period between 12th and 24th hour) was found to be 40%.

With `O=C(c1ccc(O)c(Br)c1)c1c(-c2ccccc2)c(Br)c2ccccn12` [Phenyl Br Br H, 1-Bromo-2-phenyl-3-(3-bromo-4-hydroxy-benzoyl)-indolizine], in the data set on HSV-1 (KOS), the “effect on the antiviral (anti-herpetic) activity of adenine arabinoside (Ara-A)” value was “potentiates the antiviral activity of adenine arabinoside”. At 1 µM the inhibition in data set [4] was 80%. In addition, in data set [1], the “Inhibition … (in %) At 5.10^-5 M adenosine” value is listed as 88% and the “Inhibition … (in %) At 10^-5 M adenosine” value amounted to 100%. The “deaths after 14 days” value in data set [5] is “on death was registered”. Besides, the IC50 in data set [6] was 2000 nM.

Regarding `CCCc1c(Br)c2ccccn2c1C(=O)c1cc(Br)c(O)c(Br)c1` [n-Propyl Br Br Br, 1-Bromo-2-n-propyl-3-(3,5-dibromo-4-hydroxy-benzoyl)-indolizine], the inhibition at 10 µM in data set [2] was 95%.

In the case of `Cc1c(Br)c2ccccn2c1C(=O)c1ccc(O)c(Cl)c1` [Methyl Br Cl H, 1-Bromo-2-methyl-3-(3-chloro-4-hydroxy-benzoyl)-indolizine], the inhibition at 10 µM in data set [2] came out at 44%.

The compound `O=C(c1ccc(O)c(Br)c1)c1c(-c2ccc(F)cc2)c(Br)c2ccccn12` [4-Fluoro-phenyl Br Br H, 1-Bromo-2-(4-fluoro-phenyl)-3-(3-bromo-4-hydroxy-benzoyl)-indolizine] displayed an inhibition at 1 µM in data set [4] of 86%. For the same compound, in data set [1], the “Inhibition … (in %) At 5.10^-5 M adenosine” value was determined as 94% and the “Inhibition … (in %) At 10^-5 M adenosine” value worked out at 100%. In data set [5], the “deaths after 14 days” value is given as “on death was registered”. The IC50 in data set [6] was 1000 nM.

`CCc1cc2ccccn2c1C(=O)c1cc(Cl)c(O)c(Cl)c1` [Ethyl H Cl Cl, 2-Ethyl-3-(3,5-dichloro-4-hydroxy-benzoyl)-indolizine] displayed an inhibition at 10 µM in data set [2] of 98%.

As for `CC(C)c1cc2ccccn2c1C(=O)c1ccc(O)c(Br)c1` [Isopropyl H H Br, 2-Isopropyl-3-(3-bromo-4-hydroxy-benzoyl)-indolizine], the inhibition at 10 µM in data set [2] was determined as 94%.

`Cc1cc2ccccn2c1C(=O)c1ccc(O)c(Br)c1` [Methyl H H Br, 2-Methyl-3-(3-bromo-4-hydroxy-benzoyl)-indolizine]: in data set [2], the inhibition at 10 µM came to 74%.

In data set [2], `Cc1cc2ccccn2c1C(=O)c1cc(Br)c(O)c(Br)c1` [Methyl H Br Br, 2-Methyl-3-(3,5-dibromo-4-hydroxybenzoyl)-indolizine] displayed an inhibition at 10 µM of 91%.

On to `O=C(c1ccc(O)c(Cl)c1)c1c(-c2cccc(Br)c2)cc2ccccn12` [3-Bromo-phenyl H H Cl, 2-(3-Bromo-phenyl)-3-(3-chloro-4-hydroxy-benzoyl)-indolizine], for which the inhibition at 10 µM in data set [2] stood at 23%.

`CCc1cc2ccccn2c1C(=O)c1ccc(O)c(OC)c1` [Ethyl H H OCH3, 2-Ethyl-2-(3-methoxy-4-hydroxy-benzoyl)-indolizine]: in data set [2], 10 µM produced 57% inhibition.

In data set [2], `CCc1cc2ccccn2c1C(=O)c1ccc(O)c(Cl)c1` [Ethyl H H Cl, 2-Ethyl-3-(3-chloro-4-hydroxy-benzoyl)-indolizine] showed an inhibition at 10 µM of 87%.

Take `Cc1c(Br)c2ccccn2c1C(=O)c1cc(Cl)c(O)c(Cl)c1` [Methyl Br Cl Cl, 1-Bromo-2-methyl-3-(3,5-dichloro-4-hydroxy-benzoyl)-indolizine]: in data set [2], the inhibition at 10 µM was determined as 46%.

Regarding `CC(C)c1cc2ccccn2c1C(=O)c1cc(Br)c(O)c(Br)c1` [Isopropyl H Br Br, 2-Isopropyl-3-(3,5-dibromo-4-hydroxy-benzoyl)-indolizine], testing at 1 µM in data set [7] gave an inhibition of 84%. For the same compound, the inhibition at 10 µM in data set [2] was found to be 99%.

In turn, `Cc1ccc(-c2c(Br)c3ccccn3c2C(=O)c2ccc(O)cc2)cc1` [4-Methyl-phenyl Br H H, 1-Bromo-2-(4-methyl-phenyl)-3-(4-hydroxy-benzoyl)-indolizine] gave an inhibition at 10 µM in data set [2] of 48%.

Consider `CCc1c(Br)c2ccccn2c1C(=O)c1ccc(O)c(Br)c1` [Ethyl Br Br H, 1-Bromo-2-ethyl-3-(3-bromo-4-hydroxy-benzoyl)-indolizine], for which, in data set [2], the inhibition at 10 µM was found to be 93%.

Broadly, the inhibition is how much of the control response was suppressed.
